# Reference: article PMC7098970, “Neurosteroids as Selective Inhibitors of Glycine Receptor Activity: Structure-Activity Relationship Study on Endogenous Androstanes and Androstenes” (Frontiers in Molecular Neuroscience, 2020)
# Entries after “also recorded” stand apart in the source; their conditions may differ. Like-named read-outs stand apart in the source and are kept apart here.
# What was measured:
# glycine receptor (GlyR) = test: Glycine-induced chloride current (IGly), whole-cell patch-clamp in isolated pyramidal neurons of the rat hippocampus; type: cell-based; settings: for τdes/τdes control of IGly: 0.1 μM of steroid; for τdes/τdes control of IGly / Ipeak/Ipeak control of IGly: mean ± SEM, normalized; for Ipeak/Ipeak control of IGly: 10 μM of steroid; for Ipeak max (maximum inhibition attainable) of IGly / Ipeak Hill coefficient of IGly: peak amplitude
# Protocol: (§1) All experiments were conducted per the requirements of the Ministry of Public Health of the Russian Federation and were consistent with the EU directive for Use of Experimental Animals of the European Community. […] The cells were isolated from transverse hippocampal slices as described in detail elsewhere ([Vorobjev, 1991]). Briefly, the slices (200–500 μm) of Wistar rats (11–14 days of age) hippocampus or cerebellum were incubated at room temperature for at least 2 h in a solution containing the following components (in mM): 124 NaCl, 3 KCl, 2 CaCl2, 2 MgSO4, 25 NaHCO3, 1.3 NaH2PO4, 10 D-glucose, pH 7.4. The saline was continuously stirred and bubbled with carbogen (95% 0_2 + 5% CO2). Single pyramidal neurons from the hippocampal CA3 area or Purkinje cells from sagittal slices of the cerebellum were isolated by a vibrating fused glass pipette with a spherical tip.
# (§2) Isolated neurons were patch clamped and then lifted into the outflow of the control bath solution. […] The substances were applied through glass capillary, 0.1 mm in diameter, which could be rapidly displaced laterally ([Vorobjev et al., 1996]). A fast perfusion technique allows a complete exchange of external solution surrounding a neuron within 20 ms. […] Transmembrane currents were recorded using a conventional patch-clamp technique in the whole-cell configuration. […] The solution in the recording pipette contained the following (in mM): 40 CsF, 100 CsCl, 0.5 CaCl2, 5 EGTA, 3 MgCl2, 4 NaATP, 5 HEPES, pH 7.3. The composition of the extracellular solution was as follows (in mM): 140 NaCl, 3 KCl, 3 CaCl2, 3 MgCl2, 10 D-glucose, 10 HEPES hemisodium, and pH 7.4. Recording of the currents was performed using EPC7 patch-clamp amplifier (HEKA Electronik, Germany). The holding potential was maintained at −70 mV. Transmembrane currents were filtered at 3 kHz, stored and analyzed with IBM-PC computer, using homemade software.
# (§3) Statistical analysis was performed with the help of Prism Graphpad software. All comparisons were made with ANOVA-test using Dunnett’s multiple comparison test and Student’s unpaired t-test at a significance level of p = 0.05. N = 5–8 cells from 3 to 4 animals for every concentration. […] The meanings of asterisks (probability levels) in figures is the following: ^∗P < 0.05, ^∗∗P < 0.01. The IC50 values for steroids inhibition of the IGly and IGABA were determined using the equation: Y = 1 – [max/(1 + (IC50/C)^n)], where max is the maximum inhibition attainable, C is the concentration of steroid, IC50 is the half-maximal inhibitory concentration and n is the slope factor (Hill coefficient).
# (§4) First, the ability of steroids to affect the holding current at voltage-clamp regime was tested. […] The experiments with IGly were conducted on rat hippocampal neurons, and experiments with IGABA were conducted on rat cerebellar Purkinje cells.
# GABAA receptors = molecular target: T1, GABAA receptors (Rattus norvegicus, UniProt P18508+P62813+P63138); type: cell-based
# T1 construct: Single pyramidal neurons from the hippocampal CA3 area or Purkinje cells from sagittal slices of the cerebellum were isolated; endogenous in cells; host or cells: acutely isolated Purkinje cells from cerebellar slices of Wistar rats, 11-14 days old
# Protocol: as §1, §2, §3, §4
# [1] = read-out: Ipeak IC50 of IGly, inhibition of peak amplitude, 100 μM glycine
# [2] = Hill fit, time constant of desensitization, 100 μM glycine
# [3] = read-out: τdes IC50 of IGly, acceleration of desensitization (decrease in τdes), 100 μM glycine
# [4] = time constant of desensitization, 100 μM glycine
# T1 sequence (P62813 28-455): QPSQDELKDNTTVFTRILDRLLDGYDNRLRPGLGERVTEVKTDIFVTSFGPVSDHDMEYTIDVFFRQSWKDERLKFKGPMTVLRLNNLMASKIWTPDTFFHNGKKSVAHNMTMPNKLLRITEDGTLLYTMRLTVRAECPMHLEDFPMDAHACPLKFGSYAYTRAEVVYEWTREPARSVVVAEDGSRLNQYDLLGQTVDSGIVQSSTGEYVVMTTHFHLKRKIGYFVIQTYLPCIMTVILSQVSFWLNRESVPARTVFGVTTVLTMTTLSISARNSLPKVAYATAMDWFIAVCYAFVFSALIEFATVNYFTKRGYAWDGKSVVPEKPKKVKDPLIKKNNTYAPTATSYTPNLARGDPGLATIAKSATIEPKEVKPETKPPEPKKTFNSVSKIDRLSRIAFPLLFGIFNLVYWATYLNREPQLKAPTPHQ
# T1 sequence (P63138 25-474 limits assumed): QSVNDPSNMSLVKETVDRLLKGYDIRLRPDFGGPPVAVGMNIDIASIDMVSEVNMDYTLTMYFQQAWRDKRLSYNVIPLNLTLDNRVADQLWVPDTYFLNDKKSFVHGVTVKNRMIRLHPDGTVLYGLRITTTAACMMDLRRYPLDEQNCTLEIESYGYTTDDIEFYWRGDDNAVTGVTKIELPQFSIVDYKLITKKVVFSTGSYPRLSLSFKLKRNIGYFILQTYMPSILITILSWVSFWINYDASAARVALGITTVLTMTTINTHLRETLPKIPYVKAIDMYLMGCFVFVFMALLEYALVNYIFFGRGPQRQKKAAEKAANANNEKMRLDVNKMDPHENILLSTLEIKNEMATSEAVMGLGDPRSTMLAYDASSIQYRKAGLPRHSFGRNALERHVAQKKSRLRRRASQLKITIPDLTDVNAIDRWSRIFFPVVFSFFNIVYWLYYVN
# T1 sequence (P18508 39-466): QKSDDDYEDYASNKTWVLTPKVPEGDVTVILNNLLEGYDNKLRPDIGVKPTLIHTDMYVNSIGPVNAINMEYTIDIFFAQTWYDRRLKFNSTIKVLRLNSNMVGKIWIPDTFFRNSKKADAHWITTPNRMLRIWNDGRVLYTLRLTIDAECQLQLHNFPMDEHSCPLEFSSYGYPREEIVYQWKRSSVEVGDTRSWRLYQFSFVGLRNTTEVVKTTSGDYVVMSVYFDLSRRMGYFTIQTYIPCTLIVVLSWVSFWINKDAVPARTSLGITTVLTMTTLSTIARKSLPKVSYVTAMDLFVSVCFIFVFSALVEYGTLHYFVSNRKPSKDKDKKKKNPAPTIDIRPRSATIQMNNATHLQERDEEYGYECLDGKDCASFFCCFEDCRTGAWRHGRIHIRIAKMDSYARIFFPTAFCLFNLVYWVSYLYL
SMILES,τdes/τdes control of IGly (glycine receptor (GlyR); 100 μM glycine),Ipeak/Ipeak control of IGly (glycine receptor (GlyR); 100 μM glycine),"Ipeak max (maximum inhibition attainable) of IGly (glycine receptor (GlyR); Hill fit, 100 μM glycine)",Ipeak Hill coefficient of IGly (glycine receptor (GlyR); 100 μM glycine),IC50 (glycine receptor (GlyR); [1]) [µM],Ipeak/Ipeak control of IGABA (GABAA receptors),Modulation of IGABA (peak amplitude or rate of decay/desensitization) (GABAA receptors),τdes IGABA (effect in words) (GABAA receptors),τdes/τdes control of IGABA (GABAA receptors),"τdes IGly (effect on time constant of desensitization) (glycine receptor (GlyR); 10 μM compound, 100 μM glycine) [%]",τdes max (maximum inhibition attainable) of IGly (glycine receptor (GlyR); [2]),IC50 (glycine receptor (GlyR); [3]) [µM],τdes Hill coefficient of IGly (glycine receptor (GlyR); [4]),"τdes/τdes control of IGABA (GABAA receptors; 10 μM of steroid, 5 μM GABA)","Ipeak/Ipeak control of IGABA (GABAA receptors; 50 μM of steroid, 5 μM GABA)",also measured
"C[C@]12CCC(=O)C[C@@H]1CC[C@@H]1[C@@H]2CC[C@]2(C)[C@@H](O)CC[C@@H]12 [Compound 3, 17β-Hydroxy-5α-androstan-3-one]",0.72 ± 0.06,0.78 ± 0.03,0.61 ± 0.08,0.86 ± 0.15,20.1 ± 2.8,0.95 ± 0.03,did not modulate; also recorded: remained inactive; also recorded: did not change,^cNo effect,0.98 ± 0.02,–,–,–,–,–,–,τdes Hill coefficient of IGly (glycine receptor (GlyR)): 0.58 ± 0.13; τdes IGly (effect on time constant of desensitization) (glycine receptor (GlyR)): −82%; τdes max (maximum inhibition attainable) of IGly (glycine receptor (GlyR)): 0.97 ± 0.11; IC50 (glycine receptor (GlyR); read-out: τdes IC50 of IGly): 0.42 ± 0.14 µM
"C[C@]12CC[C@H](O)CC1=CC[C@@H]1[C@@H]2CC[C@]2(C)C(=O)CC[C@@H]12 [Compound 8, 3β-Hydroxy-androst-5-en-17-one]",0.67 ± 0.05,0.70 ± 0.01,0.73 ± 0.08,0.92 ± 0.14,21.3 ± 2.2,–,–,–,–,−79,0.88 ± 0.09,0.24 ± 0.09,0.57 ± 0.14,0.88 ± 0.05,0.75 ± 0.04,"τdes IGABA (effect on time constant of desensitization) (GABAA receptors; 10 μM compound, 5 μM GABA): −12%; Acceleration of decay (desensitization) of IGABA (GABAA receptors; 50 μM compound, 5 μM GABA): 23–45%; Decrease in the peak amplitude of IGABA (GABAA receptors; 50 μM compound, 5 μM GABA): 14–25%"
"CN1CCc2cc3c(cc2[C@H]1[C@@H]1OC(=O)c2c1ccc1c2OCO1)OCO3 [bicuculline, reference compound]",–,–,–,–,–,–,–,–,–,–,–,–,–,–,–,Block of IGABA (GABAA receptors): reversibly blocked
"C[C@]12CCC(=O)C[C@H]1CC[C@@H]1[C@@H]2CC[C@]2(C)C(=O)CC[C@@H]12 [Compound 9, 5β-Androstane-3,17-dione]",0.72 ± 0.07,0.77 ± 0.03,0.68 ± 0.09,1.0 ± 0.19,22 ± 2.8,0.99 ± 0.01,did not modulate; also recorded: remained inactive; also recorded: did not change,^cNo effect,0.97 ± 0.03,−68,0.79 ± 0.11,0.4 ± 0.12,0.56 ± 0.14,–,–,–
"C[C@]12CC[C@H]3[C@@H](CCC4=CC(=O)CC[C@@]43C)[C@@H]1CC[C@H]2O [Compound 5, 17α-Hydroxyandrost-4-en-3-one]",0.66 ± 0.04,0.80 ± 0.04,0.46 ± 0.09,1.2 ± 0.34,17 ± 2.9,–,–,–,–,−72,0.81 ± 0.11,0.22 ± 0.08,0.51 ± 0.15,0.97 ± 0.03,1.12 ± 0.08,"τdes IGABA (effect in words) (GABAA receptors; footnote c: did not modulate IGABA up to the concentration of 50 μM, 5 μM GABA): ^cNo effect; Modulation of IGABA (peak amplitude or rate of decay/desensitization) (GABAA receptors; up to 50 μM compound, 5 μM GABA): did not modulate; also recorded: remained inactive; also recorded: did not change"
